One data set deals with T1, hAPJ (Homo sapiens, UniProt P35414).
T1 sequence (P35414 1-380): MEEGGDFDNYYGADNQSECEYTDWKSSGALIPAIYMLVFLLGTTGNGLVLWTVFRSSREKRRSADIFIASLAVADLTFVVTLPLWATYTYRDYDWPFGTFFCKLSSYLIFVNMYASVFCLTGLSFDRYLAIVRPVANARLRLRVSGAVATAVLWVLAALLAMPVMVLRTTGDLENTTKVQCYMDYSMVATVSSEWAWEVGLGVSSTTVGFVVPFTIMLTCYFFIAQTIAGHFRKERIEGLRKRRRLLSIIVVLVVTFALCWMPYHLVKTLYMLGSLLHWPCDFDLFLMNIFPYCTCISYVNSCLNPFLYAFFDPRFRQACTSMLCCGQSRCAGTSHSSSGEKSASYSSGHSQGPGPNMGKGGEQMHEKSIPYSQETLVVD
In words: hAPJ Calcium Flux Assay. The data set is classed as cell-based. Summed up:
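Chem-5 cells stably expressing APJ, loaded 1 h with Calcium 4 dye plus 2.5 mM probenecid at 37 °C. Peptides added at final […] in HBSS/HEPES/0.1% BSA, in triplicate.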
In general terms: Calcium flux is commonly read through the fluorescence of an indicator in the cells.

The nature of data set [1]: Surrogate Activity-Based Plasma Stability Assay. The data set is classed as in vitro ADME. To be noted: rat. As for the experimental part:
Stability half-life was then calculated by the formula, t½=0.693÷k Surrogate Activity-Based Plasma Stability Assay: […]
2) Calculate slope of value above and […]

The mark [2] stands for this setting: Chem-5 APJ stable cells, FLIPR calcium flux stimulation, read-out: hAPJ Ca^2+ Flux EC50.
[3] abbreviates: Surrogate activity-based Plasma stability t½.

Molecules are shown by their SMILES. Read-outs that look alike come from different tables or passages of the source. Where a SMILES comes first, the peptide text is derived from it. [ ]: non-standard residue; d: D form. The star is where a group is joined. Cha = N[C@@H](CC1CCCCC1)C(=O)O; pGlu = O=C1CC[C@@H](C(=O)O)N1; dNle = CCCC[C@@H](N)C(=O)O; Nle = CCCC[C@H](N)C(=O)O; Aib = CC(C)(N)C(=O)O; Bn = c1ccc(C*)cc1

In general, EC50 refers to the concentration giving half of the maximal effect. `CCCC[C@@H](NC(=O)[C@@H]1CCCN1C(=O)CNC(=O)[C@H](CCCCN)NC(=O)[C@H](Cc1c[nH]cn1)NC(=O)[C@@H](C)NC(=O)[C@H](Cc1ccc(OCc2ccccc2)cc1)NC(=O)[C@H](CCCNC(=N)N)NC(=O)[C@@H]1CCCN1C(=O)[C@H](CCCNC(=N)N)NC(=O)[C@@H]1CCC(=O)N1)C(=O)N[C@H](C)C(=O)N[C@H](Cc1ccccc1)C(=O)O` [Example 27, pE-R-P-R-Y(Bzl)-a-H-K-G-P-nle-a-f-OH] ([pGlu]RPRY(Bn)[dA]HKGP[dNle][dA][dF]-OH): the EC50 at hAPJ is 121 nM. Further, in data set [1] (read-out: Surrogate activity-based Plasma stability t½), the half-life came to 5.81 h.
For `CCCC[C@@H](NC(=O)[C@@H]1CCCN1C(=O)[C@H](CC(=O)O)NC(=O)[C@H](CCCCN)NC(=O)[C@H](Cc1c[nH]cn1)NC(=O)[C@@H](C)NC(=O)[C@H](CC(C)C)NC(=O)[C@H](CCCNC(=N)N)NC(=O)[C@@H]1CCCN1C(=O)[C@H](CCCNC(=N)N)NC(=O)[C@@H]1CCC(=O)N1)C(=O)N[C@H](C)C(=O)N[C@H](Cc1ccccc1)C(=O)O` [Example 62, pE-R-P-R-L-a-H-K-D-P-nle-a-f-OH] ([pGlu]RPRL[dA]HKDP[dNle][dA][dF]-OH), the EC50 on hAPJ (setting [2]) was found to be 95.9 nM. The compound further yielded a half-life in data set [1] (setting [3]) of 7.9 h.
In the same order, the values of `CCCC[C@H](NC(=O)[C@@H]1CCCN1C(=O)CNC(=O)[C@H](CCCCN)NC(=O)C(C)(C)NC(=O)[C@H](CO)NC(=O)[C@H](CC(C)C)NC(=O)[C@H](CCCNC(=N)N)NC(=O)[C@@H]1CCCN1C(=O)[C@H](CCCNC(=N)N)NC(=O)[C@@H]1CCC(=O)N1)C(=O)N[C@H](C)C(=O)N[C@@H](Cc1ccccc1)C(=O)O` [Example 42, pE-R-P-R-L-S-Aib-K-G-P-Nle-a-F-OH] ([pGlu]RPRLS[Aib]KGP[Nle][dA]F-OH) are 2.4 nM and more than 16.7 h.
The corresponding values for `CCCC[C@@H](NC(=O)[C@@H]1CCCN1C(=O)CNC(=O)[C@H](CCCCN)NC(=O)[C@H](Cc1c[nH]cn1)NC(=O)[C@@H](C)NC(=O)[C@H](CC(C)C)NC(=O)[C@H](CCCNC(=N)N)NC(=O)[C@@H]1CCCN1C(=O)[C@H](CCCNC(=N)N)NC(=O)[C@@H]1CCC(=O)N1)C(=O)N[C@@H](Cc1ccccc1)C(=O)O` [Example 18, pE-R-P-R-L-a-H-K-G-P-nle-F-OH] ([pGlu]RPRL[dA]HKGP[dNle]F-OH) are 66.5 nM and 2.04 h.
In the same order, the values of `CCCC[C@@H](NC(=O)[C@@H]1CCCN1C(=O)CNC(=O)[C@H](CCCCN)NC(=O)[C@H](Cc1c[nH]cn1)NC(=O)[C@@H](C)NC(=O)[C@H](CC(C)C)NC(=O)[C@H](CCCNC(=N)N)NC(=O)[C@@H]1CCCN1C(=O)[C@H](CCCNC(=N)N)NC(=O)[C@@H]1CCC(=O)N1)C(=O)N[C@H](C)C(=O)N[C@H](CC(=O)O)C(=O)O` [Example 22, pE-R-P-R-L-a-H-K-G-P-nle-a-d-OH] ([pGlu]RPRL[dA]HKGP[dNle][dA][dD]-OH) are 86.8 nM and more than 16.7 h.
On to `CCCC[C@H](NC(=O)[C@@H]1CCCN1C(=O)CNC(=O)[C@@H](CCCCN)NC(=O)[C@H](Cc1c[nH]cn1)NC(=O)[C@@H](C)NC(=O)[C@H](CC(C)C)NC(=O)[C@H](CCCNC(=N)N)NC(=O)[C@@H]1CCCN1C(=O)[C@H](CCCNC(=N)N)NC(=O)[C@@H]1CCC(=O)N1)C(=O)N[C@H](C)C(=O)N[C@H](Cc1ccccc1)C(=O)O` [Example 31, pE-R-P-R-L-a-H-k-G-P-Nle-a-f-OH], for which, on hAPJ (setting [2]), the EC50 was 99 nM. For the same compound, in data set [1] (setting [3]), the half-life came out at 5.78 h.
In the same order, the values of `CCCC[C@@H](NC(=O)[C@@H]1CCCN1C(=O)CNC(=O)[C@H](CCCCN)NC(=O)[C@H](Cc1c[nH]cn1)NC(=O)[C@@H](CC(C)C)NC(=O)[C@H](CC(C)C)NC(=O)[C@H](CCCNC(=N)N)NC(=O)[C@@H]1CCCN1C(=O)[C@H](CCCNC(=N)N)NC(=O)[C@@H]1CCC(=O)N1)C(=O)N[C@H](C)C(=O)N[C@H](Cc1ccccc1)C(=O)O` [Example 10, pE-R-P-R-L-(D-Leu)-H-K-G-P-nle-a-f-OH] ([pGlu]RPRL[dL]HKGP[dNle][dA][dF]-OH) are 155 nM and more than 16.7 h.
Consider `CCCC[C@@H](NC(=O)[C@@H]1CCCN1C(=O)CNC(=O)[C@H](CCCCN)NC(=O)[C@H](Cc1c[nH]cn1)NC(=O)[C@@H](C)NC(=O)[C@H](CC(C)C)NC(=O)[C@H](CCCNC(=N)N)NC(=O)[C@@H]1CCCN1C(=O)[C@H](CCCNC(=N)N)NC(=O)[C@@H]1CCC(=O)N1)C(=O)N[C@H](CCC(=O)O)C(=O)N[C@H](Cc1ccccc1)C(=O)O` [Example 19, pE-R-P-R-L-a-H-K-G-P-nle-e-f-OH] ([pGlu]RPRL[dA]HKGP[dNle][dE][dF]-OH), for which the EC50 on hAPJ (setting [2]) was found to be 169 nM. In data set [1] (setting [3]), this compound returned a half-life of more than 16.7 h.
Consider `CCCC[C@@H](NC(=O)[C@@H]1CCCN1C(=O)CNC(=O)[C@H](CCCCN)NC(=O)[C@@H](C)NC(=O)[C@H](CO)NC(=O)[C@H](CC(C)C)NC(=O)[C@H](CCCNC(=N)N)NC(=O)[C@@H]1CCCN1C(=O)[C@H](CCCNC(=N)N)NC(=O)[C@@H]1CCC(=O)N1)C(=O)N[C@H](C)C(=O)N[C@H](Cc1ccccc1)C(=O)O` [Example 51, pE-R-P-R-L-S-a-K-G-P-nle-a-f-OH] ([pGlu]RPRLS[dA]KGP[dNle][dA][dF]-OH), for which the EC50 on hAPJ (setting [2]) is 8.5 nM. Moreover, the half-life in data set [1] (setting [3]) was more than 16.7 h.
The corresponding values for `CCCC[C@@H](NC(=O)[C@@H]1CCCN1C(=O)CNC(=O)[C@H](CCCCN)NC(=O)C(C)(C)NC(=O)[C@H](CO)NC(=O)[C@H](CC(C)C)NC(=O)[C@H](CCCNC(=N)N)NC(=O)[C@@H]1CCCN1C(=O)[C@H](CCCNC(=N)N)NC(=O)[C@@H]1CCC(=O)N1)C(=O)N[C@H](C)C(=O)N[C@H](Cc1ccccc1)C(=O)O` [Example 40, pE-R-P-R-L-S-Aib-K-G-P-nle-a-f-OH] ([pGlu]RPRLS[Aib]KGP[dNle][dA][dF]-OH) are 2 nM and more than 16.7 h.
The corresponding values for `CCCC[C@@H](NC(=O)[C@@H]1CCCN1C(=O)CNC(=O)[C@H](CCCCN)NC(=O)[C@H](Cc1c[nH]cn1)NC(=O)[C@@H](C)NC(=O)[C@H](CC(C)C)NC(=O)[C@H](CCCNC(=N)N)NC(=O)[C@@H]1CCCN1C(=O)[C@@H](N)CCCNC(=N)N)C(=O)N[C@H](Cc1ccccc1)C(=O)O` [Example 50, H-R-P-R-L-a-H-K-G-P-nle-f-OH] (H-RPRL[dA]HKGP[dNle][dF]-OH) are 1.4 nM and 0.183 h.
The corresponding values for `CCCC[C@@H](NC(=O)[C@@H]1CCCN1C(=O)CNC(=O)[C@H](CCCCN)NC(=O)[C@H](Cc1c[nH]cn1)NC(=O)[C@@H](C)NC(=O)[C@H](CC(C)C)NC(=O)[C@H](CCCNC(=N)N)NC(=O)[C@@H]1CCCN1C(=O)[C@H](CCCNC(=N)N)NC(=O)[C@@H]1CCC(=O)N1)C(=O)N1CCC(Oc2ccccc2)CC1` [Example 43, pE-R-P-R-L-a-H-K-G-P-nle-(4-Phenoxypiperidin-1-yl)] are 2 nM and 2.97 h.
As for `CCCC[C@@H](NC(=O)[C@@H]1CCCN1C(=O)CNC(=O)[C@H](CCCCN)NC(=O)[C@H](Cc1c[nH]cn1)NC(=O)[C@@H](C)NC(=O)[C@H](CC(C)C)NC(=O)[C@H](CCCNC(=N)N)NC(=O)[C@@H]1CCCN1C(=O)[C@H](CCCNC(=N)N)NC(=O)[C@@H]1CCC(=O)N1)C(=O)N1CCC[C@@H]1C(=O)N[C@H](Cc1ccccc1)C(=O)O` [Example 13, pE-R-P-R-L-a-H-K-G-P-nle-p-f-OH] ([pGlu]RPRL[dA]HKGP[dNle][dP][dF]-OH), the EC50 on hAPJ (setting [2]) came to 1.1 nM. Besides, the half-life in data set [1] (setting [3]) was more than 16.7 h.
The corresponding values for `CCCC[C@@H](NC(=O)[C@@H]1CCCN1C(=O)CNC(=O)[C@H](CCCCN)NC(=O)[C@H](CC(C)C)NC(=O)[C@@H](C)NC(=O)[C@H](CC(C)C)NC(=O)[C@H](CCCNC(=N)N)NC(=O)[C@@H]1CCCN1C(=O)[C@H](CCCNC(=N)N)NC(=O)[C@@H]1CCC(=O)N1)C(=O)N[C@H](C)C(=O)N[C@H](Cc1ccccc1)C(=O)O` [Example 47, pE-R-P-R-L-a-L-K-G-P-nle-a-f-OH] ([pGlu]RPRL[dA]LKGP[dNle][dA][dF]-OH) are 4.4 nM and more than 16.7 h.
The corresponding values for `CCCC[C@@H](NC(=O)[C@@H]1CCCN1C(=O)CNC(=O)[C@H](CCCCN)NC(=O)[C@H](Cc1c[nH]cn1)NC(=O)[C@@H](C)NC(=O)[C@H](CC(C)C)NC(=O)[C@H](CCCNC(=N)N)NC(=O)[C@@H]1C[C@@H](c2ccccc2)CN1C(=O)[C@H](CCCNC(=N)N)NC(=O)[C@@H]1CCC(=O)N1)C(=O)N[C@H](C)C(=O)N[C@H](Cc1ccccc1)C(=O)O` [Example 9, pE-R-(trans-4-PhP)-R-L-a-H-K-G-P-nle-a-f-OH] are 9.9 nM and more than 16.7 h.
Turning to `CCCC[C@@H](NC(=O)[C@@H]1CCCN1C(=O)CNC(=O)[C@H](CCCCN)NC(=O)[C@H](Cc1c[nH]cn1)NC(=O)[C@@H](C)NC(=O)[C@H](CC1CCCCC1)NC(=O)[C@H](CCCNC(=N)N)NC(=O)[C@@H]1CCCN1C(=O)[C@H](CCCNC(=N)N)NC(=O)[C@@H]1CCC(=O)N1)C(=O)N[C@H](C)C(=O)N[C@H](Cc1ccccc1)C(=O)O` [Example 23, pE-R-P-R-Cha-a-H-K-G-P-nle-a-f-OH] ([pGlu]RPR[Cha][dA]HKGP[dNle][dA][dF]-OH), the EC50 on hAPJ (setting [2]) came to 2.8 nM. Besides, the half-life in data set [1] (setting [3]) worked out at 2.08 h.

Values taken from patent US8921307B2, “Synthetic linear apelin mimetics for the treatment of heart failure” (priority 2012, dated 2014).
